Laboratory results from patent publication US11891365B2, “3-alkyl-4-amido-bicyclic [4,5,0] hydroxamic acids as HDAC inhibitors” (Valo Health, Inc., priority 2015, dated 2024).

molecular target: T1, Full length human recombinant HDAC6 protein (Homo sapiens, UniProt Q9UBN7); assay: In vitro histone deacetylase assay: enzymatic HDAC6 electrophoretic mobility shift assay; format: biochemical; conditions: 1 nM enzyme, 2 μM peptide substrate RHKK(Ac)-NH2, 25° C., 12 concentrations; read-out: Inhibitory Concentration (IC50) Values against HDAC6, Activity Range
T1 sequence (Q9UBN7 1-1215): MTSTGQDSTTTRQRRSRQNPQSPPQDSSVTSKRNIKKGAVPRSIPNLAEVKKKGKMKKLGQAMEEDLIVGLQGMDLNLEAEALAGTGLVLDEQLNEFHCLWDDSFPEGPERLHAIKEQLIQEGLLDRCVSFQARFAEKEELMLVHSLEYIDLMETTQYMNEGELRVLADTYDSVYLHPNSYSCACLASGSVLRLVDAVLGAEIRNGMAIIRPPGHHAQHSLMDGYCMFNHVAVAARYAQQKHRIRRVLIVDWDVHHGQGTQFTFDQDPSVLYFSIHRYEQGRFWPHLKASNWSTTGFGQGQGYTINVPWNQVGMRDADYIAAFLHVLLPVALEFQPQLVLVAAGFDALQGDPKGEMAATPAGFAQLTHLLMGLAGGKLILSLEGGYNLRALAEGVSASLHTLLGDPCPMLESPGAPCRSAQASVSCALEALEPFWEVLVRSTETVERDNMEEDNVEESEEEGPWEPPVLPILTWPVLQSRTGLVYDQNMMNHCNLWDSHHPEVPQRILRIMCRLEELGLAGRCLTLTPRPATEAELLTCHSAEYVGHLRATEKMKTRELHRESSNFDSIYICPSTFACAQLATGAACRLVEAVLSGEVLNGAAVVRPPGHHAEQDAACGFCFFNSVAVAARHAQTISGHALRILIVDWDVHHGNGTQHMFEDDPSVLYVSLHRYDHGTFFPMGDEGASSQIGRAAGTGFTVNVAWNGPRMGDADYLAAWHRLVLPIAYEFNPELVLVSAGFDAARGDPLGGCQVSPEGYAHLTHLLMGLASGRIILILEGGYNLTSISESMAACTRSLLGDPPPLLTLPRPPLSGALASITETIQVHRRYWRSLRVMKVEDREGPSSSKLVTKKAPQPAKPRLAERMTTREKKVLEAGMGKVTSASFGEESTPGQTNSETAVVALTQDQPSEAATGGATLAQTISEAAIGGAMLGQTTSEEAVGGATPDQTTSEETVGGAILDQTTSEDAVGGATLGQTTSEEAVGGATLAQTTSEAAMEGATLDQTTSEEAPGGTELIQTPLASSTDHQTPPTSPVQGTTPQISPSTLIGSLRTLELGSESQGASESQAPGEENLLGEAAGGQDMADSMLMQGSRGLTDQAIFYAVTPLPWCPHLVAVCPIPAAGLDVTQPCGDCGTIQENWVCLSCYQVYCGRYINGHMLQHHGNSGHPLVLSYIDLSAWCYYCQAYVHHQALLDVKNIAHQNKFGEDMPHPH

Row | SMILES | IC50
1 | O=C(NO)c1ccc2c(c1)OCCN(C(=O)C1CCCC13CCNC3)C2 (stereo not shown) [N-hydroxy-4-(2-azaspiro[4.4]nonane-6-carbonyl)-2,3,4,5-tetrahydrobenzo[f][1,4]oxazepine-8-carboxamide] | 100 to 500 nM
2 | O=C(NO)c1ccc2c(c1)OCCN(C(=O)C1CCC3(CCNC3)CC1)C2 (stereo not shown) [N-hydroxy-4-(2-azaspiro[4.5]decane-8-carbonyl)-2,3,4,5-tetrahydrobenzo[f][1,4]oxazepine-8-carboxamide] | ≤ 100 nM
3 | CC(C)(O)C(=O)N1CCOc2cc(C(=O)NO)ccc2C1 [N-hydroxy-4-(2-hydroxy-2-methylpropanoyl)-2,3,4,5-tetrahydrobenzo[f][1,4]oxazepine-8-carboxamide] | 100 to 500 nM
4 | CC(C)C(O)(C(=O)N1CCOc2cc(C(=O)NO)ccc2C1)c1ccccc1 (stereo not shown) [N-hydroxy-4-(2-hydroxy-3-methyl-2-phenylbutanoyl)-2,3,4,5-tetrahydrobenzo[f][1,4]oxazepine-8-carboxamide] | > 500 nM
5 | CC(C)COCC(=O)N1CCOc2cc(C(=O)NO)ccc2C1 [N-hydroxy-4-(2-isobutoxyacetyl)-2,3,4,5-tetrahydrobenzo[f][1,4]oxazepine-8-carboxamide] | > 500 nM
6 | Cc1cc(C)c(CC(=O)N2CCOc3cc(C(=O)NO)ccc3C2)c(C)c1 [N-hydroxy-4-(2-mesitylacetyl)-2,3,4,5-tetrahydrobenzo[f][1,4]oxazepine-8-carboxamide] | ≤ 100 nM
7 | COC(C(=O)N1CCOc2cc(C(=O)NO)ccc2C1)c1ccccc1 (stereo not shown) [N-hydroxy-4-(2-methoxy-2-phenylacetyl)-2,3,4,5-tetrahydrobenzo[f][1,4]oxazepine-8-carboxamide] | 100 to 500 nM
8 | COC(C)(C(=O)N1CCOc2cc(C(=O)NO)ccc2C1)c1ccccc1 (stereo not shown) [N-hydroxy-4-(2-methoxy-2-phenylpropanoyl)-2,3,4,5-tetrahydrobenzo[f][1,4]oxazepine-8-carboxamide] | 100 to 500 nM
9 | Cc1ccn(C(C)(C)C(=O)N2CCOc3cc(C(=O)NO)ccc3C2)n1 [N-hydroxy-4-(2-methyl-2-(3-methyl-1H-pyrazol-1-yl)propanoyl)-2,3,4,5-tetrahydrobenzo[f][1,4]oxazepine-8-carboxamide] | ≤ 100 nM
10 | CC(C)(C(=O)N1CCOc2cc(C(=O)NO)ccc2C1)c1ccc2ccccc2c1 [N-hydroxy-4-(2-methyl-2-(naphthalen-2-yl)propanoyl)-2,3,4,5-tetrahydrobenzo[f][1,4]oxazepine-8-carboxamide] | 100 to 500 nM
11 | CC(C)(C(=O)N1CCOc2cc(C(=O)NO)ccc2C1)c1ccccn1 [N-hydroxy-4-(2-methyl-2-(pyridin-2-yl)propanoyl)-2,3,4,5-tetrahydrobenzo[f][1,4]oxazepine-8-carboxamide] | 100 to 500 nM
12 | CC(C)(C(=O)N1CCOc2cc(C(=O)NO)ccc2C1)c1cccnc1 [N-hydroxy-4-(2-methyl-2-(pyridin-3-yl)propanoyl)-2,3,4,5-tetrahydrobenzo[f][1,4]oxazepine-8-carboxamide] | 100 to 500 nM
13 | CC(C)(C(=O)N1CCOc2cc(C(=O)NO)ccc2C1)c1cccs1 [N-hydroxy-4-(2-methyl-2-(thiophen-2-yl)propanoyl)-2,3,4,5-tetrahydrobenzo[f][1,4]oxazepine-8-carboxamide] | ≤ 100 nM
14 | CC(C)(C(=O)N1CCOc2cc(C(=O)NO)ccc2C1)c1ccccc1 [N-hydroxy-4-(2-methyl-2-phenylpropanoyl)-2,3,4,5-tetrahydrobenzo[f][1,4]oxazepine-8-carboxamide] | 100 to 500 nM
15 | CC(Cc1ccccc1)C(=O)N1CCOc2cc(C(=O)NO)ccc2C1 (stereo not shown) [N-hydroxy-4-(2-methyl-3-phenylpropanoyl)-2,3,4,5-tetrahydrobenzo[f][1,4]oxazepine-8-carboxamide] | ≤ 100 nM
16 | O=C(NO)c1ccc2c(c1)OCCN(C(=O)CN1CCOCC1)C2 [N-hydroxy-4-(2-morpholinoacetyl)-2,3,4,5-tetrahydrobenzo[f][1,4]oxazepine-8-carboxamide] | > 500 nM
17 | O=C(NO)c1ccc2c(c1)OCCN(C(=O)C(Oc1ccccc1)c1ccccc1)C2 (stereo not shown) [N-hydroxy-4-(2-phenoxy-2-phenylacetyl)-2,3,4,5-tetrahydrobenzo[f][1,4]oxazepine-8-carboxamide] | 100 to 500 nM
18 | CCC(Oc1ccccc1)C(=O)N1CCOc2cc(C(=O)NO)ccc2C1 (stereo not shown) [N-hydroxy-4-(2-phenoxybutanoyl)-2,3,4,5-tetrahydrobenzo[f][1,4]oxazepine-8-carboxamide] | 100 to 500 nM
19 | CC(Oc1ccccc1)C(=O)N1CCOc2cc(C(=O)NO)ccc2C1 (stereo not shown) [N-hydroxy-4-(2-phenoxypropanoyl)-2,3,4,5-tetrahydrobenzo[f][1,4]oxazepine-8-carboxamide] | 100 to 500 nM
20 | O=C(NO)c1ccc2c(c1)OCCN(C(=O)C(c1ccccc1)n1cccn1)C2 (stereo not shown) [N-hydroxy-4-(2-phenyl-2-(1H-pyrazol-1-yl)acetyl)-2,3,4,5-tetrahydrobenzo[f][1,4]oxazepine-8-carboxamide] | 100 to 500 nM

Results, then the compound that gave them:

Row | IC50 | SMILES
21 | 100 to 500 nM | O=C(NO)c1ccc2c(c1)OCCN(C(=O)C(c1ccccc1)n1cnnn1)C2 (stereo not shown) [N-hydroxy-4-(2-phenyl-2-(1H-tetrazol-1-yl)acetyl)-2,3,4,5-tetrahydrobenzo[f][1,4]oxazepine-8-carboxamide]
22 | 100 to 500 nM | O=C(NO)c1ccc2c(c1)OCCN(C(=O)C(OCC(F)(F)F)c1ccccc1)C2 (stereo not shown) [N-hydroxy-4-(2-phenyl-2-(2,2,2-trifluoroethoxy)acetyl)-2,3,4,5-tetrahydrobenzo[f][1,4]oxazepine-8-carboxamide]
23 | > 500 nM | O=C(NO)c1ccc2c(c1)OCCN(C(=O)C(OC1CCOCC1)c1ccccc1)C2 (stereo not shown) [N-hydroxy-4-(2-phenyl-2-((tetrahydro-2H-pyran-4-yl)oxy)acetyl)-2,3,4,5-tetrahydrobenzo[f][1,4]oxazepine-8-carboxamide]
24 | 100 to 500 nM | CCC(C(=O)N1CCOc2cc(C(=O)NO)ccc2C1)c1ccccc1 (stereo not shown) [N-hydroxy-4-(2-phenylbutanoyl)-2,3,4,5-tetrahydrobenzo[f][1,4]oxazepine-8-carboxamide]
25 | ≤ 100 nM | O=C(NO)c1ccc2c(c1)OCCN(C(=O)C1CC1c1ccccc1)C2 (stereo not shown) [N-hydroxy-4-(2-phenylcyclopropane-1-carbonyl)-2,3,4,5-tetrahydrobenzo[f][1,4]oxazepine-8-carboxamide]
26 | 100 to 500 nM | O=C(NO)c1ccc2c(c1)OCCN(C(=O)C1Oc3ccccc3C13CCNCC3)C2 (stereo not shown) [N-hydroxy-4-(2H-spiro[benzofuran-3,4′-piperidine]-2-carbonyl)-2,3,4,5-tetrahydrobenzo[f][1,4]oxazepine-8-carboxamide]
27 | 100 to 500 nM | COc1ccc(CC(C(=O)N2CCOc3cc(C(=O)NO)ccc3C2)c2ccccc2)cc1 (stereo not shown) [N-hydroxy-4-(3-(4-methoxyphenyl)-2-phenylpropanoyl)-2,3,4,5-tetrahydrobenzo[f][1,4]oxazepine-8-carboxamide]
28 | ≤ 100 nM | CCCNc1c(C(=O)N2CCOc3cc(C(=O)NO)ccc3C2)sc2ccccc12 [N-hydroxy-4-(3-(propylamino)benzo[b]thiophene-2-carbonyl)-2,3,4,5-tetrahydrobenzo[f][1,4]oxazepine-8-carboxamide]
29 | ≤ 100 nM | O=C(NO)c1ccc2c(c1)OCCN(C(=O)C1CCC3(CCNCC3)CC1)C2 [N-hydroxy-4-(3-azaspiro[5.5]undecane-9-carbonyl)-2,3,4,5-tetrahydrobenzo[f][1,4]oxazepine-8-carboxamide]
30 | > 500 nM | O=C(NO)c1ccc2c(c1)OCCN(C(=O)CCO)C2 [N-hydroxy-4-(3-hydroxypropanoyl)-2,3,4,5-tetrahydrobenzo[f][1,4]oxazepine-8-carboxamide]
31 | ≤ 100 nM | COCC(C)(C)C(=O)N1CCOc2cc(C(=O)NO)ccc2C1 [N-hydroxy-4-(3-methoxy-2,2-dimethylpropanoyl)-2,3,4,5-tetrahydrobenzo[f][1,4]oxazepine-8-carboxamide]
32 | 100 to 500 nM | COc1cccc(C(=O)N2CCOc3cc(C(=O)NO)ccc3C2)c1 [N-hydroxy-4-(3-methoxybenzoyl)-2,3,4,5-tetrahydrobenzo[f][1,4]oxazepine-8-carboxamide]
33 | ≤ 100 nM | CC1(C(=O)N2CCOc3cc(C(=O)NO)ccc3C2)COC1 [N-hydroxy-4-(3-methyloxetane-3-carbonyl)-2,3,4,5-tetrahydrobenzo[f][1,4]oxazepine-8-carboxamide]
34 | 100 to 500 nM | CC(CC(=O)N1CCOc2cc(C(=O)NO)ccc2C1)c1ccccc1 (stereo not shown) [N-hydroxy-4-(3-phenylbutanoyl)-2,3,4,5-tetrahydrobenzo[f][1,4]oxazepine-8-carboxamide]
